From patent US10471046B2, “Method for treating, preventing, or reducing the risk of skin infection” (Melinta Subsidiary Corp., priority 2014, dated 2019)
In brackets after ≈: the same amount, converted by molar mass. Where a name gives a salt, the structure may show the parent alone. Read-outs that look alike come from different tables or passages of the source.

Tests used:
[1] = assay type: physicochemical; conditions: radezolid salt forms in HPLC grade water, ambient temperature
B. fragilis = test: Broth microdilution MIC; assay type: cell-based; conditions: Bacteroides fragilis, ATCC25285; B. fragilis ATCC 25285
B. thetaiotaomicron = test: microbe, parasite or virus in culture; assay type: cell-based; conditions: Bacteroides thetaiotaomicron, ATCC29741, read-out: MIC, broth microdilution
G. vaginalis = test: Broth microdilution MIC; assay type: cell-based; conditions: Gardnerella vaginalis
F. magna = test: Broth microdilution MIC; assay type: cell-based; conditions: Finegoldia magna, ATCC15794; F. magna ATCC 15794
S. aureus [2] = test: Broth microdilution MIC; assay type: cell-based; conditions: Staphylococcus aureus, ATCC29213; S. aureus ATCC 29213
P. granulosum = test: Broth microdilution MIC; assay type: cell-based; conditions: P. granulosum ATCC 25746
[3] = Dynamic vapor sorption/desorption (DVS); assay type: physicochemical; conditions: radezolid salts
Description: Dynamic vapor sorption/desorption (DVS) data were collected on a VTI SGA-100 Vapor Sorption Analyzer. Sorption and desorption data were collected over a range of 5% to 95% relative humidity (RH) at 10% RH intervals under a nitrogen purge. Samples were not dried prior to analysis. Equilibrium criteria used for analysis were less than 0.0100% weight change in 5 minutes, with a maximum equilibration time of 3 hours if the weight criterion was not met. Data were not corrected for the initial moisture content of the samples. Sodium chloride and polyvinylpyrrolidine (PVP) were used as calibration standards.

[4] = Solubility of salts in water by HPLC; assay type: physicochemical; conditions: for Solubility at Adjusted pH / Solubility at Native pH: radezolid salts in water by HPLC at 23° C.; for Solubility at Adjusted pH: pH adjusted to ~3.5; for Native pH: supernatant of saturated salt solution in water
Description: In another set of experiments, solubility of various radezolid salts was determined by HPLC. Approximately 1 mL of saturated solution (with excess of solid in solution) of each salt was prepared in water. The mixture was further mixed overnight on a slurry wheel then centrifuged on a desktop centrifuge at maximum speed for ˜5 min. The supernatant was collected, and pH was measured. Solubility was determined at the native pH. Then the pH was adjusted to ˜3.5 with sodium hydroxide solution or an acid solution in which salt was generated. The supernatant was filtered through a 0.2 μm nylon syringe filter and diluted into 0.1% formic acid solution immediately after filtration for HPLC. All HPLC analyses were performed using an Agilent 1100 series liquid chromatograph equipped with a diode array detector, degasser, quaternary pump, and an autosampler. […] The column temperature was set to 30° C., and the detector wavelength was 270 nm with a bandwidth of 8 nm and a reference wavelength of 360 nm. The mobile phase A was 0.1% formic acid in water (HPLC grade), mobile phase B was 0.1% formic acid in methanol (HPLC grade). […] The injection volume was 5 μl.

[5] = Approximate solubility in solvents by aliquot addition; assay type: physicochemical; conditions: organic solvent or mixture, thermodynamic from solid
Description: Solubilities of the radezolid free base and radezolid HCl salt in various solvents were estimated and are shown in Tables 10 and 11, respectively, below. A weighed sample was treated with aliquots of test solvent at ambient temperature. Complete dissolution of the test material was determined by visual inspection. Solubility was estimated based on the total solvent used to provide complete dissolution. The actual solubility may be greater than the approximate solubility calculated because of the use of solvent aliquots that were too large or due to a slow rate of dissolution. […] If complete dissolution was achieved as a result of only one aliquot addition, the solubility is expressed as “greater than.” The approximate solubilities were rounded to the nearest whole number.

S. aureus [6] = test: Minimum inhibitory concentrations (MICs) for S. aureus of exemplary compounds (Table 2); assay type: cell-based; conditions: Staphylococcus aureus, minimum inhibitory concentrations for S. aureus; read-out: MICs
Procedure, shortened: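 MICs (μg/mL) against S. aureus come from microtiter-tray dilution susceptibility testing per NCCLS M7-A5, comparing growth with and without compound.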

CC(=O)NC[C@H]1CN(c2ccc(-c3ccc(CNCc4cnn[nH]4)cc3)c(F)c2)C(=O)O1 [Maleate]
solubility [1]: 2300 µg/mL

CC[C@H]1OC(=O)[C@H](C)[C@@H](O[C@H]2C[C@@](C)(OC)[C@@H](O)[C@H](C)O2)[C@H](C)[C@@H](O[C@@H]2O[C@H](C)C[C@H](N(C)C)[C@H]2O)[C@](C)(O)C[C@@H](C)C(=O)[C@H](C)[C@@H](O)[C@]1(C)O [ERY, erythromycin]
MIC (B. fragilis): 16 µg/mL (≈ 21.8 µM)
MIC (B. thetaiotaomicron): 16 µg/mL (≈ 21.8 µM)
MIC (G. vaginalis; ATCC14018, G. vaginalis ATCC 14018): ≤ 0.06 µg/mL
MIC (G. vaginalis; ATCC49145, G. vaginalis ATCC 49145): ≤ 0.06 µg/mL
MIC (F. magna): 4 µg/mL (≈ 5.45 µM)
MIC (S. aureus [2]): 1 µg/mL (≈ 1.36 µM)
MIC (P. granulosum): 16 µg/mL (≈ 21.8 µM)

CC(=O)NC[C@H]1CN(c2ccc(-c3ccc(CNCc4cnn[nH]4)cc3)c(F)c2)C(=O)O1 [Tosylate, Radezolid Tosylate Salt]
DVS desorption: weight loss from 95 to 5% RH ([3]; Tosylate Salt): Desorption: 0.435% weight loss
DVS sorption: weight gain from 5 to 95% RH ([3]; Tosylate Salt): 0.435% weight gain from 5 to
DVS sorption: weight loss upon equilibration at 5% RH ([3]; Tosylate Salt): Sorption: 0.070% weight loss
Solubility at Adjusted pH ([4]; Tosylate Salt): 0.4 mg/mL
Solubility at Native pH ([4]; Tosylate Salt): 0.9 mg/mL
Native pH ([4]; Tosylate Salt): 5.1

CC(=O)NC[C@H]1CN(c2ccc(-c3ccc(CNCc4cnn[nH]4)cc3)c(F)c2)C(=O)O1 [Phosphate]
solubility [1]: 1100 µg/mL

CC(=O)NC[C@H]1CN(c2ccc(-c3ccc(CNCc4cnn[nH]4)cc3)c(F)c2)C(=O)O1 [Succinate]
solubility [1]: <30 µg/mL

CC(=O)NC[C@H]1CN(c2ccc(-c3ccc(CNCc4cnn[nH]4)cc3)c(F)c2)C(=O)O1 [Tartrate]
solubility [1]: 1800 µg/mL

CC(=O)NC[C@H]1CN(c2ccc(-c3ccc(CNCc4cnn[nH]4)cc3)c(F)c2)C(=O)O1 [Fumarate]
solubility [1]: 2600 µg/mL

CC(=O)NC[C@H]1CN(c2ccc(-c3ccc(CNCc4cnn[nH]4)cc3)c(F)c2)C(=O)O1 [Ethane-1,2-disulfonate, Radezolid Ethanedisulfonate Salt]
DVS desorption: weight loss from 95 to 5% RH [3]: Desorption: 2.388% weight loss
DVS sorption: weight gain from 5 to 95% RH [3]: 2.355% weight gain from 5 to
DVS sorption: weight loss upon equilibration at 5% RH [3]: Sorption: 0.017% weight loss
Solubility at Native pH [4]: >133.2 mg/mL
Solubility at Adjusted pH [4]: >116.9 mg/mL
Native pH [4]: 2.0

CC(=O)NC[C@H]1CN(c2ccc(-c3ccc(CNCc4cnn[nH]4)cc3)c(F)c2)C(=O)O1 [Esylate, Radezolid Esylate Salt]
DVS desorption: weight loss from 95 to 5% RH [3]: Desorption: 2.999% weight loss
DVS sorption: weight gain from 5 to 95% RH [3]: 2.930% weight gain from 5 to
DVS sorption: weight loss upon equilibration at 5% RH [3]: Sorption: 0.22% weight loss
Solubility at Native pH [4]: 53.8 mg/mL
Solubility at Adjusted pH [4]: 61.7 mg/mL
Native pH [4]: 4.0

CC(=O)NC[C@H]1CN(c2ccc(-c3ccc(CNCc4cnn[nH]4)cc3)c(F)c2)C(=O)O1 [Citrate]
solubility [1]: 2600 µg/mL

CC(=O)NC[C@H]1CN(c2ccc(-c3ccc(CNCc4cnn[nH]4)cc3)c(F)c2)C(=O)O1 [Lactate]
solubility [1]: <20 µg/mL

CC(=O)NC[C@H]1CN(c2ccc(-c3ccc(CNCc4cnn[nH]4)cc3)c(F)c2)C(=O)O1 [Hydrochloride, (5S)—N-[3-(2-Fluoro-4′-{[(1H-[1,2,3]triazol-4-ylmethyl)-amino]-methyl}-biphenyl-4-yl)-2-oxo-oxazolidin-5-ylmethyl]-acetamide chloride]
DVS desorption: weight loss from 95 to 5% RH [3]: Desorption: 0.069% weight loss
DVS sorption: weight gain from 5 to 95% RH [3]: 0.064% weight gain from 5 to
DVS sorption: weight gain upon equilibration at 5% RH [3]: Sorption: 0.03% weight gain
solubility ([5]; 1-butanol, Table 11: 1-Butanol, material never went into solution): < 2000 µg/mL
solubility ([5]; 2,2,2-trifluoroethanol (TFE), Table 11: 2,2,2-trifluoroethanol (TFE)): ≥ 6000 µg/mL
solubility ([5]; 2-butanone, Table 11: 2-Butanone, material never went into solution): < 2000 µg/mL
solubility ([5]; 2-propanol, Table 11: 2-Propanol, material never went into solution): < 2000 µg/mL
solubility ([5]; HFIPA/THF, Table 11: HFIPA/THF): ≥ 74000 µg/mL
solubility ([5]; HFIPA/dioxane (9:1), Table 11: HFIPA/Dioxane (9:1)): ≥ 52000 µg/mL
solubility ([5]; HFIPA/ethanol (5:1), Table 11: HFIPA/Ethanol (5:1)): ≥ 80000 µg/mL
solubility ([5]; dioxane, Table 11: Dioxane, material never went into solution): < 2000 µg/mL
solubility ([5]; ethanol, Table 11: Ethanol, material never went into solution): < 2000 µg/mL
solubility ([5]; hexafluoroisopropanol (HFIPA), Table 11: Hexafluoroisopropanol (HFIPA)): ≥ 225000 µg/mL
solubility ([5]; methanol, Table 11: Methanol, material never went into solution): < 2000 µg/mL
solubility ([5]; propionitrile, Table 11: Propionitrile, material never went into solution): < 2000 µg/mL
solubility ([5]; tert-butanol, Table 11: Tert-butanol, material never went into solution): < 5000 µg/mL
solubility ([5]; tetrahydrofuran (THF), Table 11: Tetrahydrofuran (THF), material never went into solution): < 2000 µg/mL
solubility [1]: <30 µg/mL
Solubility at Adjusted pH ([4]; listed as HCl Salt): 2.0 mg/mL
Native pH ([4]; listed as HCl Salt): 4.6

CC(=O)NC[C@H]1CN(c2ccc(-c3ccc(CNCc4cnn[nH]4)cc3)c(F)c2)C(=O)O1 [Mesylate, Radezolid Mesylate Salt]
DVS desorption: weight loss from 95 to 5% RH ([3]; Mesylate Salt): Desorption: 0.835% weight loss
DVS sorption: weight gain from 5 to 95% RH ([3]; Mesylate Salt): 1.025% weight gain from 5 to
DVS sorption: weight loss upon equilibration at 5% RH ([3]; Mesylate Salt): Sorption: 0.114% weight loss
Solubility at Adjusted pH ([4]; Mesylate Salt): 18.0 mg/mL
Solubility at Native pH ([4]; Mesylate Salt): 18.6 mg/mL
Native pH ([4]; Mesylate Salt): 4.1

CC(=O)NC[C@H]1CN(c2ccc(-c3ccc(CNCc4cnn[nH]4)cc3)c(F)c2)C(=O)O1 [Benzoate]
solubility [1]: <30 µg/mL

CC(=O)NC[C@H]1CN(c2ccc(-c3ccc(CNCc4cnn[nH]4)cc3)c(F)c2)C(=O)O1 [Salicylate]
solubility [1]: <30 µg/mL

CC(=O)NC[C@H]1CN(c2ccc(-c3ccc(CNCc4cnn[nH]4)cc3)c(F)c2)C(=O)O1 [Sulfate, Radezolid Sulfate Salt]
DVS desorption: weight loss from 95 to 5% RH ([3]; Sulfate Salt): Desorption: 11.504% weight loss
DVS sorption: weight gain from 5 to 95% RH ([3]; Sulfate Salt): 11.527% weight gain from 5 to
DVS sorption: weight loss upon equilibration at 5% RH ([3]; Sulfate Salt): Sorption: 0.654% weight loss
Solubility at Adjusted pH ([4]; Sulfate Salt): 3.3 mg/mL
Solubility at Native pH ([4]; Sulfate Salt): 4.0 mg/mL
Native pH ([4]; Sulfate Salt): 1.9

CC(=O)NC[C@H]1CN(c2ccc(-c3ccc(CNCc4cnn[nH]4)cc3)c(F)c2)C(=O)O1 [Acetate]
solubility [1]: <20 µg/mL

CC(=O)NC[C@H]1CN(c2ccc(-c3ccc(CNCCCSc4cnn[nH]4)cc3)c(F)c2)C(=O)O1 [Compound 5002, N-[3-(2-Fluoro-4′-{[3-(3H-[1,2,3]triazol-4-ylsulfanyl)-propylamino]-methyl}-biphenyl-4-yl)-2-oxo-oxazolidin-5-(S)-ylmethyl]-acetamide]
MIC (S. aureus [6]): 0.25 µg/mL (≈ 0.501 µM)

CC(=O)NC[C@H]1CN(c2ccc(-c3ccc(Cn4cccn4)cc3)c(F)c2)C(=O)O1 [Compound 1043, N-[3-(2-Fluoro-4′-pyrazol-1-ylmethyl-biphenyl-4-yl)-2-oxo-oxazolidin-5-(S)-ylmethyl]-acetamide]
MIC (S. aureus [6]): 0.25 µg/mL (≈ 0.612 µM)
